Measured values taken from patent publication US12312359B2 (Vitae Pharmaceuticals, LLC, priority 2016, dated 2025).

Assays:
[1] = system: human acute monocytic leukemia cell line MV-4-11; assay: Assay 2: cell proliferation assay (ATP quantitation, CellTiter-Glo), MV-4-11; type: cell-based; conditions: MV-4-11 cells
Protocol: Potencies of inhibitor compounds against cell proliferation was assessed against the human acute monocytic leukemia cell line MV-4-11 (ATCC® CRL-9591™) based on ATP quantitation. MV-4-11 cells or toxicity control HL-60 cells (ATCC® CCL-240™) were incubated in 96-well tissue culture plates (1.67×10^4 cells in 200 μL culture media containing 10% FBS per well) with or without test compound for 72 h at 37° C., 5% CO2. After incubation, each well was mixed by pipetting and 95 μL from each well was transferred to a well in 96-well black OptiPlate® plates (PerkinElmer). An equal volume of CellTiter-Glo® Luminescent Cell Viability Assay reagent (Promega) was added to each well, followed by mixing for 5 min on an orbital plate shaker. Luminescence was measured on a Wallac EnVision 2104 Multilabel Reader (PerkinElmer) to quantitate ATP.

[2] = biological target: T1, biotinylated wild-type menin and MLL-AF9 fusion protein (menin/MLL binding) (Homo sapiens, UniProt O00255); assay: Assay 1: menin/MLL binding AlphaLISA assay, wild-type menin; conditions: Table 30; column head does not say wild-type or mutated menin
T1 construct: made in house; host or cells: menin: E. coli; MLL-AF9-FLAG: HEK293 cells, used as cleared lysate
T1 sequence (O00255 1-610): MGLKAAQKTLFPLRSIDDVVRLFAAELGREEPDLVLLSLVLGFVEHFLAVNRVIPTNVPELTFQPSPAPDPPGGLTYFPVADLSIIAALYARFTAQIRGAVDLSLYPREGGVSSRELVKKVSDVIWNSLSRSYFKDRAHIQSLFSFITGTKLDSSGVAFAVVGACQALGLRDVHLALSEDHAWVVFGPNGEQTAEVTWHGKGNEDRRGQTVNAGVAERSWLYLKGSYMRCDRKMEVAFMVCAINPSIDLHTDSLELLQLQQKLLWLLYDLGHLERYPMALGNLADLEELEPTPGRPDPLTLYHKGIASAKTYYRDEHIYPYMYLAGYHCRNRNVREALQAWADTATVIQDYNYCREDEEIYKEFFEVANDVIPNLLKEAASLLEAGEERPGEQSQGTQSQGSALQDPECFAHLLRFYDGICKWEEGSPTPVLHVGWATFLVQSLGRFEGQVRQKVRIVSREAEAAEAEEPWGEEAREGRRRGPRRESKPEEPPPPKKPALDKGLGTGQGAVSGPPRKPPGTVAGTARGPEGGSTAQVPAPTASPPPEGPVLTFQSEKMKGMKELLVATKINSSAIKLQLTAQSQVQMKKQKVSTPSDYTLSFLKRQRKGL
Protocol: Potencies of inhibitor compounds against menin/MLL binding were assessed by AlphaLISA assay using biotinylated (1) wild-type menin or (2) mutated menin (described in Huang et al, 2012, Nature, 482, 542-546) and MLL-AF9 fusion protein bearing a FLAG epitope at its C-terminus. Menin proteins were expressed in E. coli and covalently modified with biotin using EZ-Link™ Sulfo-NHS-Biotin (ThermoFisher Cat.No. 21217) according to manufacturer's protocol. MLL1-1,396 fused to AF91-92 and the C-terminal FLAG peptide was expressed in HEK293 cells and used as a lysate cleared at 21,000×g for 10 min.
Compounds (2 μL of solutions in DMSO) were dispensed in white 96-well half-area plates (Corning Cat.No. 3693) and incubated for 30 min at RT with 5 nM biotinylated menin and appropriate amount of MLL-AF9-FLAG lysate in 40 μL of 50 mM Tris-HCl buffer pH 7.4 containing 5% (v/v) DMSO, 50 mM NaCl, 0.01% (w/v) bovine serum albumin (BSA) and 1 mM DTT. To this incubation mixture, 40 μL of AlphaLISA anti-FLAG acceptor (PerkinElmer Cat.No. AL112C) and streptavidin donor (PerkinElmer Cat.No. 6760002) beads (10 μg/mL each) was added and incubation continued at RT for 60 min. Alpha (amplified luminescent proximity homogeneous assay) signal was measured on an Envision multi-label plate reader at the end of the incubation. All steps were conducted under dim fluorescent light.
These percent inhibition values were regressed against compound concentrations in the assay using four parameter logit non-linear curve fitting (XLFit, IDBS). The IC50 values were derived from the curve fitting as inflection points on the dose-response curves and are set out in Table 30 below.

SMILES | EC50 ([1]; Homo sapiens, MV4-11, 72 h) [nM] | IC50 [2] [nM] | EC50 ([1]; 72 h) [nM]
CC(C)N(C(=O)c1cc(F)ccc1Oc1cncnc1N1CCC2(CCN(Cc3ccc4[nH]c(=O)[nH]c4c3)C2)C1)C(C)C (single isomer, unassigned) [Example 1A, 5-fluoro-N,N-diisopropyl-2-((4-(7-((2-oxo-2,3-dihydro-1H-benzo[d]imidazol-5-yl)methyl)-2,7-diazaspiro[4.4]nonan-2-yl)pyrimidin-5-yl)oxy)benzamide] | < 100 | < 100 | –
CCN(C(=O)c1cc(F)ccc1Oc1cncnc1N1CCC2(CCN(Cc3ccc4[nH]c(=O)[nH]c4c3)C2)C1)C(C)C (single isomer, unassigned) [Example 2A, N-ethyl-5-fluoro-N-isopropyl-2-((4-(7-((2-oxo-2,3-dihydro-1H-benzo[d]imidazol-5-yl)methyl)-2,7-diazaspiro[4.4]nonan-2-yl)pyrimidin-5-yl)oxy)benzamide] | – | < 100 | < 100
CCN(C(=O)c1cc(F)ccc1Oc1cncnc1N1CCC2(CCN(Cc3ccc4[nH]c(=O)[nH]c4c3)C2)C1)C(C)C (single isomer, unassigned) [Example 2B, N-ethyl-5-fluoro-N-isopropyl-2-((4-(7-((2-oxo-2,3-dihydro-1H-benzo[d]imidazol-5-yl)methyl)-2,7-diazaspiro[4.4]nonan-2-yl)pyrimidin-5-yl)oxy)benzamide] | < 100 | < 100 | –
CC(C)N(C(=O)c1cc(F)ccc1Oc1cncnc1N1CCC2(CCN(Cc3ccc4c(c3)[nH]c(=O)n4CCO)C2)C1)C(C)C (single isomer, unassigned) [Example 3A, 5-fluoro-2-((4-(7-((1-(2-hydroxyethyl)-2-oxo-2,3-dihydro-1H-benzo[d]imidazol-5-yl)methyl)-2,7-diazaspiro[4.4]nonan-2-yl)pyrimidin-5-yl)oxy)-N,N-diisopropylbenzamide] | < 100 | < 100 | –
CC(C)N(C(=O)c1cc(F)ccc1Oc1cncnc1N1CCC2(CCC(N)(Cc3ccc(C#N)cc3)C2)C1)C(C)C (single isomer, unassigned) [Example 22A, 2-((4-(7-amino-7-(4-cyanobenzyl)-2-azaspiro[4.4]nonan-2-yl)pyrimidin-5-yl)oxy)-5-fluoro-N,N-diisopropylbenzamide] | ≥ 1000 | < 100 | –
CC(C)N(C(=O)c1cc(F)ccc1Oc1cncnc1N1CCC2(CC(O)C(Cc3ccc4[nH]c(=O)[nH]c4c3)C2)C1)C(C)C (single isomer, unassigned) [Example 23A, 5-fluoro-2-((4-(7-hydroxy-8-((2-oxo-2,3-dihydro-1H-benzo[d]imidazol-5-yl)methyl)-2-azaspiro[4.4]nonan-2-yl)pyrimidin-5-yl)oxy)-N,N-diisopropylbenzamide] | – | < 100 | 100 to 1000
CC(C)N(C(=O)c1cc(F)ccc1Oc1cncnc1N1CCC2(CC(O)C(Cc3ccc4[nH]c(=O)[nH]c4c3)C2)C1)C(C)C (single isomer, unassigned) [Example 23C, 5-fluoro-2-((4-(7-hydroxy-8-((2-oxo-2,3-dihydro-1H-benzo[d]imidazol-5-yl)methyl)-2-azaspiro[4.4]nonan-2-yl)pyrimidin-5-yl)oxy)-N,N-diisopropylbenzamide] | – | < 100 | ≥ 1000
CC(C)N(C(=O)c1cc(F)ccc1Oc1cncnc1N1CCC2(CC(N)C(Cc3ccc4[nH]c(=O)[nH]c4c3)C2)C1)C(C)C (single isomer, unassigned) [Example 25, 2-((4-(7-amino-8-((2-oxo-2,3-dihydro-1H-benzo[d]imidazol-5-yl)methyl)-2-azaspiro[4.4]nonan-2-yl)pyrimidin-5-yl)oxy)-5-fluoro-N,N-diisopropylbenzamide] | – | < 100 | ≥ 1000
CC(C)N(C(=O)c1cc(F)ccc1Oc1cncnc1N1CCC2(CC(Cc3ccc(F)cc3)N(CCO)C2)C1)C(C)C (single isomer, unassigned) [Example 26A, 5-fluoro-2-((4-(8-(4-fluorobenzyl)-7-(2-hydroxyethyl)-2,7-diazaspiro[4.4]nonan-2-yl)pyrimidin-5-yl)oxy)-N,N-diisopropylbenzamide] | – | < 100 | 100 to 1000
CC(C)N(C(=O)c1cc(F)ccc1Oc1cncnc1N1CCC2(CC(Cc3ccc(F)cc3)N(CCO)C2)C1)C(C)C (single isomer, unassigned) [Example 26B, 5-fluoro-2-((4-(8-(4-fluorobenzyl)-7-(2-hydroxyethyl)-2,7-diazaspiro[4.4]nonan-2-yl)pyrimidin-5-yl)oxy)-N,N-diisopropylbenzamide] | – | < 100 | ≥ 1000

The next lines start with the values.

EC50 ([1]; Homo sapiens, MV4-11, 72 h) [nM] | IC50 [2] [nM] | EC50 ([1]; 72 h) [nM] | SMILES
< 100 | < 100 | – | N#Cc1ccc(-c2cc(F)ccc2Oc2cncnc2N2CCC3(CCN(Cc4ccc5[nH]c(=O)[nH]c5c4)C3)C2)c(C2CC2)c1 (racemic) [Example 42, 2-cyclopropyl-5′-fluoro-2′-((4-(7-((2-oxo-2,3-dihydro-1H-benzo[d]imidazol-5-yl)methyl)-2,7-diazaspiro[4.4]nonan-2-yl)pyrimidin-5-yl)oxy)-[1,1′-biphenyl]-4-carbonitrile]
– | < 100 | < 100 | CC(C)N(C(=O)c1cc(F)ccc1Oc1cncnc1N1CCC2(CCN(Cc3ccc4c(c3)[nH]c(=O)n4CCO)C2)C1)C(C)C (single isomer, unassigned) [Example 3B, 5-fluoro-2-((4-(7-((1-(2-hydroxyethyl)-2-oxo-2,3-dihydro-1H-benzo[d]imidazol-5-yl)methyl)-2,7-diazaspiro[4.4]nonan-2-yl)pyrimidin-5-yl)oxy)-N,N-diisopropylbenzamide]
< 100 | < 100 | – | CCN(C(=O)c1cc(F)ccc1Oc1cncnc1N1CCC2(CCN(Cc3ccc4c(c3)[nH]c(=O)n4CCO)C2)C1)C(C)C (single isomer, unassigned) [Example 4A, N-ethyl-5-fluoro-2-((4-(7-((1-(2-hydroxyethyl)-2-oxo-2,3-dihydro-1H-benzo[d]imidazol-5-yl)methyl)-2,7-diazaspiro[4.4]nonan-2-yl)pyrimidin-5-yl)oxy)-N-isopropylbenzamide]
≥ 1000 | < 100 | – | CC(C)N(C(=O)c1cc(F)ccc1Oc1cncnc1N1CCC2(CC(N)C(Cc3ccc4[nH]c(=O)[nH]c4c3)C2)C1)C(C)C (single isomer, unassigned) [Example 24A, 2-((4-(7-amino-8-((2-oxo-2,3-dihydro-1H-benzo[d]imidazol-5-yl)methyl)-2-azaspiro[4.4]nonan-2-yl)pyrimidin-5-yl)oxy)-5-fluoro-N,N-diisopropylbenzamide]
– | < 100 | ≥ 1000 | CC(C)N(C(=O)c1cc(F)ccc1Oc1cncnc1N1CCC2(CC(N)C(Cc3ccc4[nH]c(=O)[nH]c4c3)C2)C1)C(C)C (single isomer, unassigned) [Example 24B, 2-((4-(7-amino-8-((2-oxo-2,3-dihydro-1H-benzo[d]imidazol-5-yl)methyl)-2-azaspiro[4.4]nonan-2-yl)pyrimidin-5-yl)oxy)-5-fluoro-N,N-diisopropylbenzamide]
< 100 | < 100 | – | Cn1c(-c2cc(F)ccc2Oc2cncnc2N2CCC3(CCN(Cc4ccc5[nH]c(=O)[nH]c5c4)C3)C2)c(C2CC2)ccc1=O (single isomer, unassigned) [Example 29A, 5-((7-(5-(2-(3-cyclopropyl-1-methyl-6-oxo-1,6-dihydropyridin-2-yl)-4-fluorophenoxy)pyrimidin-4-yl)-2,7-diazaspiro[4.4]nonan-2-yl)methyl)-1,3-dihydro-2H-benzo[d]imidazol-2-one]
